Usually IC50 stands for the midpoint of a concentration-inhibition curve. A low value points to higher potency.

These results are taken from patent publication US12011444B2, “N-substituted indole derivatives as PGE2 receptor modulators” (Idorsia Pharmaceuticals Ltd, priority 2015, dated 2024).

In one assay the target is PTRGER4 (EP4) (Homo sapiens (Human), UniProt P35408). The assay can be described thus: hEP4 b-arrestin assay (PathHunter HEK 293 PTGER4 b-arrestin cells). In kind it is cell-based. A digest of the protocol:
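Stably transfected HEK293 cells carrying EP4–ProLink and β-arrestin 2–EA (β-gal fragment complementation), pre-incubated with compound 15 min at 37 °C, then stimulated with PGE2 (20 nM final) for 120 min at 37 °C. Chemiluminescence read after 1 h detection reagent at room temperature; activity per concentration expressed as percent of DMSO control.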

Another assay concerns the target PTGER2 (EP2) (Homo sapiens (Human), UniProt P43116). As to the kind of experiment: hEP2 b-arrestin assay (PathHunter HEK 293 PTGER2 b-arrestin cells). In kind it is cell-based. A digest of the protocol: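 HEK293 cells expressing ProLink-tagged EP2 and EA-fused β-arrestin 2 (enzyme fragment complementation) were seeded 24 h, pre-incubated with compound 15 min at 37 °C, then stimulated with 5 μM PGE2 (final) for 120 min.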

Where [1] appears, read: hEP4 b-arrestin assay (values without asterisk).
[2] abbreviates: hEP2 b-arrestin assay (values without asterisk).
[3] abbreviates: antagonistic activity on hEP4, mean where measured multiple times.
Setting [4] is: antagonistic activity on hEP2, mean where measured multiple times.

Molecules are shown by their SMILES.

PTGER2 (EP2), sequence (P43116 whole entry, the tested form may be a part): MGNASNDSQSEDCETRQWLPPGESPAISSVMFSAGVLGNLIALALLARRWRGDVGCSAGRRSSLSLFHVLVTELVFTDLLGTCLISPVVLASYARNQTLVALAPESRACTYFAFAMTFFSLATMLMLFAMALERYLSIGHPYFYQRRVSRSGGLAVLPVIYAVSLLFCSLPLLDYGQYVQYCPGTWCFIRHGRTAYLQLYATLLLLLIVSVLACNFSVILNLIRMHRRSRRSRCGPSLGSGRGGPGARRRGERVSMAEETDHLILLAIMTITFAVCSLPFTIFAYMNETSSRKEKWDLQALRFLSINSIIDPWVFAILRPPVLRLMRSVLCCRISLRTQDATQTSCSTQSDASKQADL
PTRGER4 (EP4), sequence (P35408 whole entry, looked up, the tested form may be a part): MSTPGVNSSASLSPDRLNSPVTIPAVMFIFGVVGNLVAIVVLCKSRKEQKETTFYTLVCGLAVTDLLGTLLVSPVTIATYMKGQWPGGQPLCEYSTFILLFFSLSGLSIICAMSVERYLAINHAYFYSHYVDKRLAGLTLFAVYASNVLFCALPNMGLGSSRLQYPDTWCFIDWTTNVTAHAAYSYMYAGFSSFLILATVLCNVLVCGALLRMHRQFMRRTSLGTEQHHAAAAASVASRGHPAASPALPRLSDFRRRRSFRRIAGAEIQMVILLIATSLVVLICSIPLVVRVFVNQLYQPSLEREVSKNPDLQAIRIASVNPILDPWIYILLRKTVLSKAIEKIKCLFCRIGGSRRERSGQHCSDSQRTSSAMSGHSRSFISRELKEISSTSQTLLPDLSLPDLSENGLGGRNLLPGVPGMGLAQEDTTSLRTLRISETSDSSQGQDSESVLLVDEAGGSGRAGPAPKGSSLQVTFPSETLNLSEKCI

Take `COc1ccc(F)c2c1cc(C#N)n2CCNc1cc(-c2ccc3[nH]cnc3c2)ncn1` [Example 984, 1-{2-[6-(1H-Benzoimidazol-5-yl)-pyrimidin-4-ylamino]-ethyl}-7-fluoro-4-methoxy-1H-indole-2-carbonitrile]: the IC50 against PTRGER4 (EP4) (setting [1]) came out at 28 nM; against PTGER2 (EP2) (setting [2]), 8 nM.
Consider `Cc1cc2ccccc2n1CCNc1cc(-c2ccc3ccncc3c2)ncn1` [compound 133], for which the IC50 came to 990 nM against PTRGER4 (EP4) (setting [3]) and 29 nM at PTGER2 (EP2) (setting [4]).
The corresponding values for `CSc1cc(-c2cc(NCCn3c(C)cc4c(C)c(F)cc(Cl)c43)ncn2)cc(Cl)c1C(=O)O` [compound 331] are 829 nM and 98 nM.
`Cc1cc2cccc(F)c2n1CCNc1cc(-c2ccc(C(=O)O)c(CC(C)C)c2)ncn1` [compound 148, 4-{6-[2-(7-Fluoro-2-methyl-indol-1-yl)-ethylamino]-pyrimidin-4-yl}-2-isobutyl-benzoic acid]: the IC50 worked out at 943 nM at PTRGER4 (EP4) (setting [3]) and 7 nM against PTGER2 (EP2) (setting [4]).
`Cc1cc(F)cc2c1cc(C)n2CCNc1cc(-c2ccc(C(=O)O)c(Cl)c2)ncn1` [compound 105]: the IC50 is 934 nM against PTRGER4 (EP4) (setting [3]) and 34 nM at PTGER2 (EP2) (setting [4]).
Consider `COc1ccc(F)c2c1cc(C)n2CCNc1cc(-c2cc(C(F)(F)F)c(C(=N)NO)s2)ncn1` [Example 1061, 5-{6-[2-(7-Fluoro-4-methoxy-2-methyl-indol-1-yl)-ethylamino]-pyrimidin-4-yl}-N-hydroxy-3-trifluoromethyl-thiophene-2-carboxamidine], for which the IC50 at PTRGER4 (EP4) (setting [1]) is 36 nM; on PTGER2 (EP2) (setting [2]) it was 19 nM.
In the case of `CCOc1cc(-c2cc(NCCn3c(C#N)cc4c(OC)ccc(F)c43)ncn2)ccc1O` [Example 899, 1-{2-[6-(3-Ethoxy-4-hydroxy-phenyl)-pyrimidin-4-ylamino]-ethyl)-7-fluoro-4-methoxy-1H-indole-2-carbonitrile], the IC50 against PTRGER4 (EP4) (setting [1]) came out at 16 nM; against PTGER2 (EP2) (setting [2]), 5 nM.
With `COc1ccc(F)c2c1cc(C#N)n2CCNc1cc(-c2ccc3[nH]c(=O)oc3c2)ncn1` [Example 972, 7-Fluoro-4-methoxy-1-{2-[6-(2-oxo-2,3-dihydro-benzooxazol-6-yl)-pyrimidin-4-ylamino]-ethyl}-1H-indole-2-carbonitrile], the IC50 against PTRGER4 (EP4) (setting [1]) turned out to be 18 nM; against PTGER2 (EP2) (setting [2]) it was 6 nM.
In the case of `Cc1cc(-c2cc(NCCn3c(C)cc4c(C)ccc(F)c43)ncn2)cc(F)c1C(=O)O` [compound 218], the IC50 at PTRGER4 (EP4) (setting [3]) amounted to 519 nM; on PTGER2 (EP2) (setting [4]), 18 nM.
Taken in the same sequence, the figures for `CCc1cc(-c2cc(NCCn3c(C)cc4c(F)ccc(F)c43)ncn2)ccc1C(=O)O` [compound 121, 4-{6-[2-(4,7-Difluoro-2-methyl-indol-1-yl)-ethylamino]-pyrimidin-4-yl}-2-ethyl-benzoic acid] were 765 nM and 5 nM.
In the case of `COc1ccc(F)c2c1cc(C)n2CCNc1cc(-c2nc(OC(C)C)c(C(=O)O)s2)ncn1` [Example 1032, 2-{6-[2-(7-Fluoro-4-methoxy-2-methyl-indol-1-yl)-ethylamino]-pyrimidin-4-yl}-4-isopropoxy-thiazole-5-carboxylic acid], the IC50 at PTRGER4 (EP4) (setting [1]) turned out to be 14 nM; against PTGER2 (EP2) (setting [2]), 10 nM.
Regarding `CCOc1cc(-c2cc(NCCn3c(C)cc4c(OC)ccc(Cl)c43)ncn2)cc(C)c1C(=O)O` [compound 365, 4-{6-[2-(7-Chloro-4-methoxy-2-methyl-indol-1-yl)-ethylamino]-pyrimidin-4-yl}-2-ethoxy-6-methyl-benzoic acid], the half-maximal inhibitory concentration (IC50) against PTRGER4 (EP4) (setting [3]) came to 409 nM; against PTGER2 (EP2) (setting [4]), 25 nM.
On to `CCOc1cc(-c2cc(NCCn3c(C)cc4c(OC)cc(Cl)c(F)c43)ncn2)sc1C(=O)O` [Example 864, 5-{6-[2-(6-Chloro-7-fluoro-4-methoxy-2-methyl-indol-1-yl)-ethylamino]-pyrimidin-4-yl}-3-ethoxy-thiophene-2-carboxylic acid], for which the IC50 against PTRGER4 (EP4) (setting [1]) was 5 nM; at PTGER2 (EP2) (setting [2]), 3 nM.
Regarding `COc1ccc(F)c2c1cc(C)n2CCNc1cc(-c2ccc3c(c2)CCN3)ncn1` [compound 67, [6-(2,3-Dihydro-1H-indol-5-yl)-pyrimidin-4-yl]-[2-(7-fluoro-4-methoxy-2-methyl-indol-1-yl)-ethyl]-amine], the IC50 against PTRGER4 (EP4) (setting [3]) was found to be 59 nM; at PTGER2 (EP2) (setting [4]) it was 10 nM.
Taken in the same sequence, the figures for `CNc1nnc(-c2ccc(-c3cc(NCCn4c(C)cc5c(C)ccc(F)c54)ncn3)cc2)s1` [compound 324, [2-(7-Fluoro-2,4-dimethyl-indol-1-yl)-ethyl]-{6-[4-(5-methylamino-[1,3,4]thiadiazol-2-yl)-phenyl]-pyrimidin-4-yl}-amine] were 23 nM and 4 nM.
Regarding `Cc1cc(-c2cc(NCCn3c(C)cc4c(C)ccc(F)c43)ncn2)ccc1C(=O)O` [compound 31, 4-{6-[2-(7-Fluoro-2,4-dimethyl-indol-1-yl)-ethylamino]-pyrimidin-4-yl}-2-methyl-benzoic acid], the IC50 at PTRGER4 (EP4) (setting [3]) amounted to 543 nM; against PTGER2 (EP2) (setting [4]), 24 nM.
The corresponding values for `COc1ccc(F)c2c1cc(C)n2CCNc1cc(-c2ccc(-c3csc(C)n3)cc2)ncn1` [compound 321] are 439 nM and 72 nM.
Taken in the same sequence, the figures for `CCNc1cc(-c2cc(NCCn3c(C)cc4cccc(Cl)c43)ncn2)ccc1C(=O)O` [compound 137, 4-{6-[2-(7-Chloro-2-methyl-indol-1-yl)-ethylamino]-pyrimidin-4-yl}-2-ethylamino-benzoic acid] were 897 nM and 2 nM.
Taken in the same sequence, the figures for `CCCc1cc(-c2cc(NCCn3c(C)cc4c(OC)cccc43)ncn2)ccc1C(=O)O` [compound 271] were 153 nM and 5 nM.
Take `COc1ccc(F)c2c1cc(C)n2CCNc1cc(-c2ccc(-c3ccn[nH]3)cc2)ncn1` [compound 193, [2-(7-Fluoro-4-methoxy-2-methyl-indol-1-yl)-ethyl]-{6-[4-(2H-pyrazol-3-yl)-phenyl]-pyrimidin-4-yl}-amine]: the figures for the IC50 against PTRGER4 (EP4) (setting [3]) and against PTGER2 (EP2) (setting [4]) were 39 nM and 4 nM, respectively.
Take `COc1ccc(F)c2c1cc(C)n2CCNc1cc(-c2cc(OCC(F)(F)F)c(C(=O)O)s2)ncn1` [Example 832, 5-{6-[2-(7-Fluoro-4-methoxy-2-methyl-indol-1-yl)-ethylamino]-pyrimidin-4-yl}-3-(2,2,2-trifluoro-ethoxy)-thiophene-2-carboxylic acid]: the IC50 at PTRGER4 (EP4) (setting [1]) was 25 nM; at PTGER2 (EP2) (setting [2]), 5 nM.
Consider `COc1ccc(F)c2c1cc(C#N)n2CCNc1cc(-c2ccc(O)c(OC(F)(F)F)c2)ncn1` [Example 866, 7-Fluoro-1-{2-[6-(4-hydroxy-3-trifluoromethoxy-phenyl)-pyrimidin-4-ylamino]-ethyl}-4-methoxy-1H-indole-2-carbonitrile], for which the IC50 at PTRGER4 (EP4) (setting [1]) stood at 5 nM; on PTGER2 (EP2) (setting [2]), 8 nM.
As to `COc1ccc(F)c2c1cc(C)n2CCNc1cc(-c2ccc(CO)c(C)c2)ncn1` [compound 32, (4-{6-[2-(7-Fluoro-4-methoxy-2-methyl-indol-1-yl)-ethylamino]-pyrimidin-4-yl}-2-methyl-phenyl)-methanol], the half-inhibitory concentration (IC50) against PTRGER4 (EP4) (setting [3]) amounted to 162 nM; against PTGER2 (EP2) (setting [4]) it was 26 nM.
Taken in the same sequence, the figures for `CCNc1cc(-c2cc(NCCn3c(C)cc4c(C)ccc(F)c43)ncn2)cc(F)c1C(=O)O` [compound 392] were 97 nM and 7 nM.
The corresponding values for `Cc1ccc(F)c2c1cc(C)n2CCNc1cc(-c2ccc(-c3cnco3)cc2)ncn1` [compound 97] are 527 nM and 177 nM.
Turning to `CCOc1cc(-c2cc(NCCn3c(C)cc4c(OC)ccc(F)c43)ncn2)ccc1C(=O)CO` [Example 1040, 1-(2-Ethoxy-4-{6-[2-(7-fluoro-4-methoxy-2-methyl-indol-1-yl)-ethylamino]-pyrimidin-4-yl}-phenyl)-2-hydroxy-ethanone], the IC50 at PTRGER4 (EP4) (setting [1]) was determined as 407 nM; against PTGER2 (EP2) (setting [2]), 91 nM.
Taken in the same sequence, the figures for `COc1ccc(F)c2c1cc(C#N)n2CCNc1cc(-c2cc(Cl)c(C(=O)O)c(OCC(C)C)c2)ncn1` [Example 913, 2-Chloro-4-{6-[2-(2-cyano-7-fluoro-4-methoxy-indol-1-yl)-ethylamino]-pyrimidin-4-yl}-6-isobutoxy-benzoic acid] were 5 nM and 13 nM.
Take `Cc1ccc(F)c2c1cc(C)n2CCNc1cc(-c2ccc(NC(N)=O)cc2)ncn1` [compound 40, (4-{6-[2-(7-Fluoro-2,4-dimethyl-indol-1-yl)-ethylamino]-pyrimidin-4-yl}-phenyl)-urea]: the half-maximal inhibitory concentration (IC50) turned out to be 392 nM at PTRGER4 (EP4) (setting [3]) and 86 nM on PTGER2 (EP2) (setting [4]).
The corresponding values for `COc1ccc(F)c2c1cc(C)n2CCNc1cc(-c2ccc(-c3cc(N)no3)cc2)ncn1` [compound 304, {6-[4-(3-Amino-isoxazol-5-yl)-phenyl]-pyrimidin-4-yl}-[2-(7-fluoro-4-methoxy-2-methyl-indol-1-yl)-ethyl]-amine] are 12 nM and 2 nM.
For the compound `Cc1cc(F)cc2c1cc(C)n2CCNc1cc(-c2ccc3c(c2)CC(=O)N3)ncn1` [compound 61], the IC50 against PTRGER4 (EP4) (setting [3]) was 518 nM; at PTGER2 (EP2) (setting [4]) it was 98 nM.
The corresponding values for `CCCc1cc(-c2cc(NCCn3c(C)cc4c(OC)ccc(F)c43)ncn2)ccc1C(=O)O` [compound 348, 4-{6-[2-(7-Fluoro-4-methoxy-2-methyl-indol-1-yl)-ethylamino]-pyrimidin-4-yl}-2-propyl-benzoic acid] are 76 nM and 5 nM.
`COc1ccc(F)c2c1cc(C#N)n2CCNc1cc(-c2ccnc(N3CCC3)c2)ncn1` [Example 975, 1-{2-[6-(2-Azetidin-1-yl-pyridin-4-yl)-pyrimidin-4-ylamino]-ethyl}-7-fluoro-4-methoxy-1H-indole-2-carbonitrile]: the figures for the IC50 against PTRGER4 (EP4) (setting [1]) and at PTGER2 (EP2) (setting [2]) were 55 nM and 44 nM, respectively.
